Experimental data published in ChEMBL document CHEMBL1201862, “PubChem BioAssay data set” (2004).
The source made the active and inactive calls.

Key:
Insulin-degrading enzyme = molecular target: T1, Insulin-degrading enzyme (Homo sapiens, UniProt P14735); experiment: activators of recombinant IDE enzyme, dose response, counter-screen for IDE activator project, biochemical, fluorescence polarization (AID 588681)
T1 sequence (P14735 whole entry): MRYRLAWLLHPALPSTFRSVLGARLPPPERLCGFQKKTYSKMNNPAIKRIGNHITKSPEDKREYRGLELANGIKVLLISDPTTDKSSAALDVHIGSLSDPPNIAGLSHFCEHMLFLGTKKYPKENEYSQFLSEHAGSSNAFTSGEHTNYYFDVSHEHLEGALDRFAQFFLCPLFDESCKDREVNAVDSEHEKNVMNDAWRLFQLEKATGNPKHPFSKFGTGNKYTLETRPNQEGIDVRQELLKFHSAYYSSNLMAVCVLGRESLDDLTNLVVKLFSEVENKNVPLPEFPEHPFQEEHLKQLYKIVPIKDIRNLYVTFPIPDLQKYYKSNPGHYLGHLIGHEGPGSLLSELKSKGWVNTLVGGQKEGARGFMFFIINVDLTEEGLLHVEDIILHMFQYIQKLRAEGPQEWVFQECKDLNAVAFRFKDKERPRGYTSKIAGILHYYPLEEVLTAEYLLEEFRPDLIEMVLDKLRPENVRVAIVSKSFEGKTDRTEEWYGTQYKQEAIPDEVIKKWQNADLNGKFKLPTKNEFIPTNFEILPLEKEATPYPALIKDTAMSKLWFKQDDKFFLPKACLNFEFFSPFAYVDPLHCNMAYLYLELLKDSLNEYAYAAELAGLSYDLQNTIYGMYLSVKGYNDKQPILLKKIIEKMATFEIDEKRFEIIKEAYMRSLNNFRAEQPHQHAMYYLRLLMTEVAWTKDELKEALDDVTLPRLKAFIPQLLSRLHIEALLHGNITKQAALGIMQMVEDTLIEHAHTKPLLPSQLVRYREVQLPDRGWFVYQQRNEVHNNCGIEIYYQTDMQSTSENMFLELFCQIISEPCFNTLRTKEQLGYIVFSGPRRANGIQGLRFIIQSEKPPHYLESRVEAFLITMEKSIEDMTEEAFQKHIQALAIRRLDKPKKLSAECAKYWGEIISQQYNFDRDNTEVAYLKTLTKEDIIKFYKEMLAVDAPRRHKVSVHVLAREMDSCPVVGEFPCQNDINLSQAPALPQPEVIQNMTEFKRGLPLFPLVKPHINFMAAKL

HEK293 = experiment: optical interference in Abeta FP readout, dose response, artefact control for IDE activator project, biochemical, fluorescence polarization (AID 588442); format: functional, cell-based; details: Homo sapiens
[1] = molecular target: T2, Replicative DNA helicase DnaB (Mycobacterium tuberculosis, UniProt P9WMR3); experiment: DnaB intein splicing inhibitors, dose response, biochemical, cell-free fluorescence (AID 449749); format: functional
T2 sequence (P9WMR3 whole entry): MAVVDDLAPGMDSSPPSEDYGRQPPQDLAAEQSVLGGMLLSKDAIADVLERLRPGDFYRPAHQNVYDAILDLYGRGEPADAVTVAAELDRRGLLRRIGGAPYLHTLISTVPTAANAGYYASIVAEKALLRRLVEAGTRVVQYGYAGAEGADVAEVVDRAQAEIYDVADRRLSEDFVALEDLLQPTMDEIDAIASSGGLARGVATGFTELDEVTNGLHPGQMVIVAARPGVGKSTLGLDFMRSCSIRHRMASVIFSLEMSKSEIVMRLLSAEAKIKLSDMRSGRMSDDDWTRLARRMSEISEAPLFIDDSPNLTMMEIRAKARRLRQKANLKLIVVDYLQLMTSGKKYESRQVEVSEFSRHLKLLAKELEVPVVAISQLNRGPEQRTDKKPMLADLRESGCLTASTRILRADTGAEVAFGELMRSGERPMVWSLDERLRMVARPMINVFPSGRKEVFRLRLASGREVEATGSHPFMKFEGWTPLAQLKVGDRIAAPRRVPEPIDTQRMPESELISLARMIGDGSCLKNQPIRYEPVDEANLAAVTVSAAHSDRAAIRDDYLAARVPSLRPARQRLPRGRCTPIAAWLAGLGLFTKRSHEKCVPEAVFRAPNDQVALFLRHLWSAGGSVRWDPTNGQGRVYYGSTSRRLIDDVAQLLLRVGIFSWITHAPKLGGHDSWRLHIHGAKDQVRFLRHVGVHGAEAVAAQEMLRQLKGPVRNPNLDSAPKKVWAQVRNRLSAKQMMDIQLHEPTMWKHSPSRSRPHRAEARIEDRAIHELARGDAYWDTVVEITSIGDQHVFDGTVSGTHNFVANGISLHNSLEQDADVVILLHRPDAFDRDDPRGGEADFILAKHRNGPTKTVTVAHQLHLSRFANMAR

[2] = molecular target: Intestinal-type alkaline phosphatase (Mus musculus, UniProt P24822); experiment: PubChem AID 488874; format: functional
[3] = molecular target: Platelet-derived growth factor receptor beta (Homo sapiens, UniProt P09619); format: functional;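 also: value comes from a kinome panel, with PDGFRB tested as one panel member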
[4] = molecular target: Tyrosine-protein kinase SYK (Homo sapiens, UniProt P43405); format: functional
[5] = molecular target: Maternal embryonic leucine zipper kinase (Homo sapiens, UniProt Q14680); format: functional
[6] = molecular target: T3, Rac GTPase-activating protein 1 (Homo sapiens, UniProt Q9H0H5); experiment: MgcRacGAP GTPase-activating activity inhibitors, confirmation, biochemical, ADP Hunter fluorescence, primary and confirmatory (AID 624330); format: functional
T3 sequence (Q9H0H5 whole entry): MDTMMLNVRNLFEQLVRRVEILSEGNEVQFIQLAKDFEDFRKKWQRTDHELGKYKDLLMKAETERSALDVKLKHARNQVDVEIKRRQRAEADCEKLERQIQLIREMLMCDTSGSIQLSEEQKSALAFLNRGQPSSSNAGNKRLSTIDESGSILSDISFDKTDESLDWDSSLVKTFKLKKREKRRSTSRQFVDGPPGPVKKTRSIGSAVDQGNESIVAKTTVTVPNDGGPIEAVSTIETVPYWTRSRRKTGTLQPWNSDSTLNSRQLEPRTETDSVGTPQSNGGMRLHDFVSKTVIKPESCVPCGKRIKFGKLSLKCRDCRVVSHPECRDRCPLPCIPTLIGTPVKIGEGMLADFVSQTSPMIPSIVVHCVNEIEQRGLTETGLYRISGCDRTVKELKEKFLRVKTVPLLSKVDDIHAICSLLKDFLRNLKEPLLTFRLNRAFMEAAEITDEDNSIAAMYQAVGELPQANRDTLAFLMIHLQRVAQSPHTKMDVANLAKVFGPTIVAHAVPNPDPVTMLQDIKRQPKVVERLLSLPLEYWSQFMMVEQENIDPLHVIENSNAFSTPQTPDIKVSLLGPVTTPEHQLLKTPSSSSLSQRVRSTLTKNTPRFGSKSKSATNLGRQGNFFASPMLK

[7] = molecular target: ATP-dependent molecular chaperone HSP82 (Candida albicans (strain WO-1) (Yeast), UniProt C4YTQ8); experiment: loss of DOC-induced GRE-beta-galactosidase reporter signal, dose response, Hsp90 inhibitor project, S. cerevisiae, luminescence (AID 2400); format: functional, cell-based;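 also: beta-galactosidase luminescence from glucocorticoid response element reporter as proxy for Hsp90 function; inhibitor potency where signal loss means Hsp90 inhibition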
Chain of ATP-dependent molecular chaperone HSP82 (C4YTQ8 whole entry): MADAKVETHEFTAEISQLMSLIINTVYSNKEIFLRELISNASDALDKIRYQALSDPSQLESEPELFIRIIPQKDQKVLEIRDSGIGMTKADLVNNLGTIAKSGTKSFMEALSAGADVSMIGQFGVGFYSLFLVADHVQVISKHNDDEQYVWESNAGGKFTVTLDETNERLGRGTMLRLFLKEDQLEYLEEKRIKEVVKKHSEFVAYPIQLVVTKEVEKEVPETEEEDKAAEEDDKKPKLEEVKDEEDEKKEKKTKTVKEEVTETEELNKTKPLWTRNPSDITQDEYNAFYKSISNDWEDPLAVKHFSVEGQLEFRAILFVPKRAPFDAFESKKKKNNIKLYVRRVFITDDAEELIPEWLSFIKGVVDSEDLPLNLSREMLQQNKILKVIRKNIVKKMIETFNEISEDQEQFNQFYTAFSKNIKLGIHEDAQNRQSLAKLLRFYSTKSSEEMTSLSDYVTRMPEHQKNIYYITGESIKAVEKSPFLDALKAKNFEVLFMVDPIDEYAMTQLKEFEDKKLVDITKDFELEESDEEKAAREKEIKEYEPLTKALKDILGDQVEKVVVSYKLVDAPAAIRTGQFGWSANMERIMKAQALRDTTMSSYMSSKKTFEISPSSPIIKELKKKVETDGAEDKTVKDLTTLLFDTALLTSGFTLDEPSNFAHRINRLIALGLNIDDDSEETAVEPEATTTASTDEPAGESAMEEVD

Chain of Maternal embryonic leucine zipper kinase (Q14680 whole entry): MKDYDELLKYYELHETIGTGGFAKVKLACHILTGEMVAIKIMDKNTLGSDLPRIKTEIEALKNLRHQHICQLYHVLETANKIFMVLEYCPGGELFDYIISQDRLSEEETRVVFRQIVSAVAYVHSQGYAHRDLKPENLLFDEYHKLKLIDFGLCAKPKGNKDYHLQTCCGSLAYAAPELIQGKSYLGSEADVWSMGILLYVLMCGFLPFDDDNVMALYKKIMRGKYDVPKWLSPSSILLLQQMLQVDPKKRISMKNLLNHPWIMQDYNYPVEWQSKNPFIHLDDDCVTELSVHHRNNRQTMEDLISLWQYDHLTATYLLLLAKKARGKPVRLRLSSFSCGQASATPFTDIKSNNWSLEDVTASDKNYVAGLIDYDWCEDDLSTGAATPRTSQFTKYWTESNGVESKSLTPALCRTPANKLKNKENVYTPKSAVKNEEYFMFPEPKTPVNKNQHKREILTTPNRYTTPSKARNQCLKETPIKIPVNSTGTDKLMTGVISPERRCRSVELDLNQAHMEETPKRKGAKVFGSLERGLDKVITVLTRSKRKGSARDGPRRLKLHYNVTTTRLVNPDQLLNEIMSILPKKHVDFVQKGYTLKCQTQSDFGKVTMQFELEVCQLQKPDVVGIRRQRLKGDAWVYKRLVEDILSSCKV
Chain of Intestinal-type alkaline phosphatase (P24822 whole entry): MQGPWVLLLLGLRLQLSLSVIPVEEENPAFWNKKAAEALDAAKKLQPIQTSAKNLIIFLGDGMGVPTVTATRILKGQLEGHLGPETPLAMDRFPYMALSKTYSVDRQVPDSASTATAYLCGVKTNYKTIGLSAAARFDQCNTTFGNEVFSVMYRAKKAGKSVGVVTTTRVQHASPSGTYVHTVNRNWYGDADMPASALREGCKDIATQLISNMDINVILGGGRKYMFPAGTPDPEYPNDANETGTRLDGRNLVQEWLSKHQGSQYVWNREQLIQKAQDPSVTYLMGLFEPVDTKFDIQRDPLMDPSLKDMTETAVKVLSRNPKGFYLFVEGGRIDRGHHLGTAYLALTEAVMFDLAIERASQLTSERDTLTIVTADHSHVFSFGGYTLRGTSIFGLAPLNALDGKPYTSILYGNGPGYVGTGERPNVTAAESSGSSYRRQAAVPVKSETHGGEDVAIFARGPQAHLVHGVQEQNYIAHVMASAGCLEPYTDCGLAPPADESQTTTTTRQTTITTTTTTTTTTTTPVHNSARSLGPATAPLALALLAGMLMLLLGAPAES
Chain of Platelet-derived growth factor receptor beta (P09619 whole entry): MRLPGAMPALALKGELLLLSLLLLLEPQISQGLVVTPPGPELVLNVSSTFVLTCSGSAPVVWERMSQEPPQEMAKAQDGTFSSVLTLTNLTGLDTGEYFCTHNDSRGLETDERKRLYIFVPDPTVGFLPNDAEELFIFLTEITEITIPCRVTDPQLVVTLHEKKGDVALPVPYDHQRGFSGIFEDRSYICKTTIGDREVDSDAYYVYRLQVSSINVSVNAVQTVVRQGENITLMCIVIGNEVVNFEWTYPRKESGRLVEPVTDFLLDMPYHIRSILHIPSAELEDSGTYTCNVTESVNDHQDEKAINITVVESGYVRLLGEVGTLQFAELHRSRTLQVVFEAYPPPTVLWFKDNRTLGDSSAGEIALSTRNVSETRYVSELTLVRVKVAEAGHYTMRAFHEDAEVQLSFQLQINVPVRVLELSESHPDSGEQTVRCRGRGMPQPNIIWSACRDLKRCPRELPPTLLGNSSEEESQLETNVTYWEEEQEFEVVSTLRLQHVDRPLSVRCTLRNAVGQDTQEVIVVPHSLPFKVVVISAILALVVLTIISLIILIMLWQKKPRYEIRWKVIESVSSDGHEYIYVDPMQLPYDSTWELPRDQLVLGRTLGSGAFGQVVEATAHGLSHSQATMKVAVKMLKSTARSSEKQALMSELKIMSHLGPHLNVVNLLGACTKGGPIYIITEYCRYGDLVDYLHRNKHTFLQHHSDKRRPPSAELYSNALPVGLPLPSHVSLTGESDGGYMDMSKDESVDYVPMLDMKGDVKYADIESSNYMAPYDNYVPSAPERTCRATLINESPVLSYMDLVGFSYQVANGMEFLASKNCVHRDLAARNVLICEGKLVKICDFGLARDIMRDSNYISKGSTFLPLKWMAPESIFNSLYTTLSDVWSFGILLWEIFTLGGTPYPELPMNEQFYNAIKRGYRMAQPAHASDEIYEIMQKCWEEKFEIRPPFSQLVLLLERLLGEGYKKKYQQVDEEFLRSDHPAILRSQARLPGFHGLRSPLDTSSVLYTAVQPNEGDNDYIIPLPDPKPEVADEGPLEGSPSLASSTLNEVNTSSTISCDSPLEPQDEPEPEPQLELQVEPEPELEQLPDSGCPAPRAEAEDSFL

## CNC[C@H](Cc1ccccc1)NC[C@@H](Cc1cccc2ccccc12)NCCc1ccc(C)cc1
Insulin-degrading enzyme
  EC50: > 54.7 µM (inactive)
HEK293
  EC50: > 54.7 µM (inactive)

## O=C(Cc1ccccc1Cl)NC1(O)C(=O)c2ccccc2C1=O
[1]
  AC50: 7.96 µM (active)

## O=C(N/N=C/c1c(O)ccc2ccccc12)c1[nH]ncc1Br
[2]
  IC50: 36.5 µM (active)

## Nc1c(-c2ccc(NC(=O)Nc3cccc(C(F)(F)F)c3)cc2)cnc2c(-c3ccc4c(c3)OCO4)cnn12
[3]
  Ki: 0.00794 µM (active)

## O=C(Nc1cc(-c2c[nH]c3ncccc23)cc(Cl)n1)c1ccccc1
[4]
  Ki: > 1.58 µM (inactive)
[5]
  Ki: 0.0316 µM (active)

## CCN1C(=Cc2sc3ccccc3[n+]2C)C=Cc2cccc(C)c21
[6]
  IC50: 55.9 µM (active)
[7]
  EC50: 37.3 µM (active)
